According to US11958864B2, “Tetracyclic heterocycle compounds useful as HIV integrase inhibitors” (Merck Sharp & Dohme LLC, priority 2021, dated 2024):

Assay: Dog pharmacokinetic studies: oral dosing of Compound A or prodrug, plasma Compound A by LC-MS/MS
Assay type: in vivo, Male Beagle Dogs
Settings: fasted Beagle dogs, comparison with dosing of Compound A
Protocol: Male Beagle Dogs (Marshall Farms) were used for the pharmacokinetic studies. Studies were conducted under a protocol approved by the WP-IACUC (Animal Procedure Statement #2018-600787-MAR). Following overnight-fasting, dogs were dosed orally with either Compound A at 10 mg/kg and 25 mg/kg or one of the respective prodrugs at the dose equivalent to 10 mg/kg and 25 mg/kg of Compound A formulated as a suspension in either 0.5% methylcellulose with 0.25% sodium lauryl sulfate or 10% Tween 80-5 mM HCl. Food was returned at 4 hours after dosing. Blood (0.5-mL) was drawn at pre-dose, 0.25, 0.5, 1, 2, 4, 6, 24, 48, 72, 96, and 168 hours post-dosing into EDTA-coated collection tubes containing 25 μL of 2 mM dichlorvos solution in water. The tubes were kept chilled prior to blood collection and throughout plasma separation. The plasma was separated by centrifugation (2 minutes at 10000 g). Plasma samples were immediately frozen and kept at −70° C. until analysis by LC-MS/MS.

Compound	absorption versus their metabolite, Compound A
COCCOC(=O)OCOc1c2n3c(c(C(=O)NCc4cccc(Cl)c4F)c1=O)CC[C@@H]3[C@@H]1OCCCN1C2=O [Compound 1, (((11aS,11bR)-3-((3-chloro-2-fluorobenzyl)carbamoyl)-4,6-dioxo-1,2,4,6,9,10,11a,11b-octahydro-8H-[1,3]oxazino[2′,3′:3,4]pyrazino[2,1,6-cd]indolizin-5-yl)oxy)methyl (2-methoxyethyl) carbonate]	increase in absorption
COC(=O)OCOc1c2n3c(c(C(=O)NCc4cccc(Cl)c4F)c1=O)CC[C@@H]3[C@@H]1OCCCN1C2=O [Compound 6, (((11aS,11bR)-3-((3-chloro-2-fluorobenzyl)carbamoyl)-4,6-dioxo-1,2,4,6,9,10,11a,11b-octahydro-8H-[1,3]oxazino[2′,3′:3,4]pyrazino[2,1,6-cd]indolizin-5-yl)oxy)methyl methyl carbonate]	increase in absorption
